Publication PMC4745926, “Absorption, Metabolism, and Excretion by Freely Moving Rats of 3,4-DHPEA-EDA and Related Polyphenols from Olive Fruits (Olea europaea)” (Journal of Nutrition and Metabolism, 2016)
Entries after “also recorded” stand apart in the source; their conditions may differ. Like-named read-outs stand apart in the source and are kept apart here.

Assay: Jugular vein plasma levels after intravenous administration in jugular vein cannulated, freely moving rats
Format: in vivo, Wistar ST rats
Details: for Cmax: analyte HT, at 5 min after intravenous administration, read-out: C max of HT in plasma
Experimental: SPF Wistar ST rats (6 weeks of age, male, 180 ± 20 g of body weight) were purchased from Japan SLC Inc. (Hamamatsu, Japan). The rats were housed in an air-conditioned room at 22 ± 2°C under cycles of 12 hours dark and 12 hours light and given free access to a commercial diet and water for a week. The rats were then fasted for over 16 hours before the experiments. The present study was approved by the Animal Care and Use Committee at Kagawa University, and the rat treatment conformed to the Rules of Animal Experiments at Kagawa University. After fasting, the rats were cannulated with a polyethylene tube (PE-50; 0.58 mm I.D., 0.965 mm O.D.) into the jugular vein, portal vein, or bile duct under anesthesia with isoflurane inhalation using a WP-SAA01 (LMS Co., Ltd., Tokyo, Japan). A small hole was made in the vein or duct using pointed scissors and cannulated with the polyethylene tube. After inserting the tube, it was fixed at the edge of the vein or duct. The jugular vein and portal vein cannulas penetrated under the skin and were then tied at the back of the rats, and the bile duct cannula was tied at the abdomen of the rats. Bile duct-cannulated rats were then restrained in a Bollman cage (Natsume Seisakusho Co., Ltd., Tokyo, Japan). Before further experiments, the rats were allowed to recover from anesthesia. 3,4-[…] (300 mg/kg body weight; 936.51 μmol/kg) dissolved in 50% polyethylene glycol aqueous solution was administered orally via a stomach tube to the portal vein cannulated rats. Blood samples (450 μL) were then collected using a heparinized syringe attached to the cannula before administration and 5, 15, 30, 60, 120, and 240 min after administration. Urine was also collected before administration and 0 to 2 h and 2 to 4 h after administration. For intravenous administration, 3,4-[…] (10 mg/kg; 31.22 μmol/kg) was injected into the jugular vein, and blood (450 μL) was collected using a heparinized syringe before administration and 5, 15, 30, 60, 120, and 240 min after administration via the jugular vein cannula. The blood (450 μL) collected was immediately cooled on ice and centrifuged at 15,000 rpm for 5 min at 4°C to obtain over 200 μL plasma. Urine was also collected before administration and 0 to 2 h and 2 to 4 h after administration. Bile was collected via the bile duct cannula before administration and 0 to 2 h and 2 to 4 h after intravenous administration. The collected plasma, urine, and bile were immediately stored in an ice box until further analyses. HT (oral administration: 100 mg/kg; 648.66 μmol/kg, intravenous administration: 10 mg/kg; 64.87 μmol/kg) and Ole (oral administration: 300 mg/kg; 555.02 μmol/kg, intravenous administration: 10 mg/kg; 18.50 μmol/kg) were investigated using the same method as described above. Metabolites were deconjugated by using β-glucuronidase (500 U) and sulfatase (50 U) in 50 μL 625 mM MOPS (pH 6.8), which was added to 200 μL of plasma, urine, or bile. The mixture was incubated for 45 min at 37°C and subjected to extraction using QuEChERS [33]. […] Shimadzu, Kyoto, Japan) equipped with a Shim-pack XR-ODS column (3.0 mm I.D. × 100 mm; Shimadzu, Kyoto, Japan) at 40°C with a mobile phase of 0.5% TFA-1% acetonitrile aqueous solution (A) and 0.5% TFA-75% acetonitrile aqueous solution (B). The elution conditions are described as follows: isocratic elution of 0% B was maintained for 4.0 min; linear gradient 0 to 4% B, 4.0-4.5 min; linear gradient 4.0-16.0% B, 4.5-16.0 min; linear gradient 16.0-100% B, 16.0-25.0 min; isocratic elution of 100% B, 25.0-26.0 min; and linear gradient 100 to 0% B, 26.0-26.1 min, with a flow rate of 0.5 mL/min. Injection volume was 50 μL. All eluted peaks were detected at 279 nm with a diode array detector (SPD-M20A; Shimadzu, Kyoto, Japan). The absorption of 3,4-[…], and Ole was evaluated by dose-normalized 4 h area under the curve (AUC0→4 h/Dose) and C max/Dose values (Table 2). […]

[1] = after intravenous administration, 10 mg/kg

Compound | Other metabolites in plasma throughout the blood sampling (after intravenous administration of Ole, 10 mg/kg) | Time at which intact compound disappeared from the systemic circulation [1] | concentration at 5 min (male, Wistar ST, rat, plasma, after intravenous administration, 10 mg/kg, 18.50 μmol/kg, read-out: Ole detected in the plasma at 5 min) [µM] | Cmax (male, Wistar ST, rat, plasma, 10 mg/kg) [µM] | AUC0→4 h-i.v./Dosei.v. (analyte HT in jugular vein plasma after intravenous administration) [μM·min·kg/μmol] | Cmax (10 mg/kg) [µM] | AUC0→4 h-i.v./Dosei.v. (analyte HVA in jugular vein plasma after intravenous administration) [μM·min·kg/μmol] | AUC0→4 h-i.v./Dosei.v. (analyte HVAOH in jugular vein plasma after intravenous administration) [μM·min·kg/μmol] | Detection of intact 3,4-DHPEA-EDA in plasma and hematocytes (jugular vein, after intravenous administration, 10 mg/kg, 31.22 μmol/kg, 10 mg/kg)
C/C=C1/[C@H](O[C@@H]2O[C@H](CO)[C@@H](O)[C@H](O)[C@H]2O)OC=C(C(=O)OC)[C@H]1CC(=O)OCCc1ccc(O)c(O)c1 [Oleuropein, reference compound] | could not be detected | ≤ 60 min | 502 | – | – | – | – | – | –
OCCc1ccc(O)c(O)c1 [Hydroxytyrosol, 2-(3,4-dihydroxyphenyl) ethyl alcohol, reference compound] | – | about 15 min | – | 1740 | – | – | – | – | –
CC=C(C=O)C(CC=O)CC(=O)OCCc1ccc(O)c(O)c1 (stereo not shown) [3,4-DHPEA-EDA, 3,4-dihydroxyphenylethyl elenolate dialdehydic form] | – | – | – | – | 259.2 | ~131 | 22.4 | 56.0 | not detected; also recorded: not observed
